The subject of one assay is ICR mice. Kind of assay: Acute hindpaw licking/flicking behavioral analysis. Conditions: 10 min.
The target of the next assay is T1, TRPV3 (Homo sapiens, UniProt Q8NET8).
T1 construct: expressed in transfected cells; host or cells: HEK293T (ATCC CRL-11268), pcDNA5/FRT
T1 sequence (Q8NET8 1-790): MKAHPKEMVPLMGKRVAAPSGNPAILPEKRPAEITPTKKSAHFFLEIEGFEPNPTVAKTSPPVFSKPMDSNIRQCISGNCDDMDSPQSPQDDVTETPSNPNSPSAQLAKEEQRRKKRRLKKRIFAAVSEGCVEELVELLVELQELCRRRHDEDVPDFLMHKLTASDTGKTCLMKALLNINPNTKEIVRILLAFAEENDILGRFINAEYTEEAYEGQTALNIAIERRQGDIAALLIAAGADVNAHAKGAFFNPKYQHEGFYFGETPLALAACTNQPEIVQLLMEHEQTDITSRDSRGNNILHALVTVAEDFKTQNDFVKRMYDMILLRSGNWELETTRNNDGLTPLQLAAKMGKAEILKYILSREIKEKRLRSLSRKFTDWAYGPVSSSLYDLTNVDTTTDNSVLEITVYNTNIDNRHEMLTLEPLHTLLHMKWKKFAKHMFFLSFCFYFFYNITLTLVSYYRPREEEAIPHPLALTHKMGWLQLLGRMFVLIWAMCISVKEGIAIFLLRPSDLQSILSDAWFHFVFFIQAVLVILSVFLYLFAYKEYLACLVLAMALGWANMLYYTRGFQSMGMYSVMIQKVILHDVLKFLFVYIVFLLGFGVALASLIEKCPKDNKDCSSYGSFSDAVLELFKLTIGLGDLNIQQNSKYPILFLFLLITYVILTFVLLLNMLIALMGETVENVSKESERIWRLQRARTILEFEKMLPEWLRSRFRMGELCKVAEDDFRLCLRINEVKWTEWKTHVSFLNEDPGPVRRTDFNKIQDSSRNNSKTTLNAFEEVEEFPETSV
Kind of assay: Calcium imaging of TRP transfected cell lines treated with acetaldehyde (TRPV3). The format is cell-based. The conditions noted are these: 1 mM acetaldehyde. From the text: (§1) HEK293T cell line (ATCC CRL-11268) was transiently transfected with plasmid DNA containing polynucleotide encoding hTRPA1 (SEQ. ID. NO: 1), rTRPV2 (SEQ. ID. NO: 2), rTRPV1 (SEQ. ID. NO: 3), mTRPV4 (SEQ. ID. NO: 4), mTRPA1 (SEQ. ID. NO: 5), hTRPV3 (SEQ. ID. NO: 6) or mTRPM8 (SEQ. ID. NO: 7).
(§2) Particularly, the HEK293T cell line was transiently transfected with individual TRP channel plasmid (pcDNA3.1 containing polynucleotide encoding hTRPA1, rTRPV2, rTRPV1 or mTRPV4; pcDNA5/FRT containing polynucleotide encoding mTRPA1, hTRPV3 or mTRPM8) 3 μg per 35-mm dish and 600 ng/well of pcDNA3 (Invitrogen Corp., USA; containing green fluorescent protein (GFP) cDNA) using Fugene6 (Roche Diagnostics, USA) according to manufacturer's instruction. The transformed cells were cultured in DMEM/F12 containing 10% FBS and 1% penicillin/streptomycin in a CO2 incubator for 24 hours. The cells were replated onto poly-L-lysine-coated glass coverslips, followed by further culture for 10-24 hours.
(§3) Particularly, the transfected cell line of Example <4-1> was loaded with Fluo-3AM (5 μM; Sigma Aldrich, USA) in the bath solution (140 mM NaCl, 5 mM KCl, 2 mM CaCl2, 1 mM MgCl2, 10 mM HEPES; adjusted to pH 7.4 with NaOH) containing 0.02% pluronic acid (Invitrogen, USA). […]

Another assay addresses T2, TRPM8 (Mus musculus, UniProt Q8R4D5).
T2 construct: expressed in transfected cells; host or cells: HEK293T (ATCC CRL-11268), pcDNA5/FRT
Kind of assay: Calcium imaging of TRP transfected cell lines treated with acetaldehyde (TRPM8). It counts as cell-based. The conditions noted are these: 1 mM acetaldehyde.
Excerpt: as §1, §2, §3

A further assay relates to trigeminal neurons. The experiment in a line: Fluo-3 calcium imaging of cultured mouse trigeminal neurons.
The next assay relates to TRPA1. The experiment in a line: Calcium imaging of TRP transfected cell lines treated with acetaldehyde (TRPA1). Conditions: 1 mM acetaldehyde. The format is cell-based.
Excerpt: as §1, §2, §3

The target in another assay is T3, TRPV2 (Rattus norvegicus, UniProt Q9WUD2, A713V/L151P/T158I).
T3 construct: expressed in transfected cells; host or cells: HEK293T (ATCC CRL-11268), pcDNA3.1
T3 sequence (Q9WUD2 1-761 L151P/T158I/A713V): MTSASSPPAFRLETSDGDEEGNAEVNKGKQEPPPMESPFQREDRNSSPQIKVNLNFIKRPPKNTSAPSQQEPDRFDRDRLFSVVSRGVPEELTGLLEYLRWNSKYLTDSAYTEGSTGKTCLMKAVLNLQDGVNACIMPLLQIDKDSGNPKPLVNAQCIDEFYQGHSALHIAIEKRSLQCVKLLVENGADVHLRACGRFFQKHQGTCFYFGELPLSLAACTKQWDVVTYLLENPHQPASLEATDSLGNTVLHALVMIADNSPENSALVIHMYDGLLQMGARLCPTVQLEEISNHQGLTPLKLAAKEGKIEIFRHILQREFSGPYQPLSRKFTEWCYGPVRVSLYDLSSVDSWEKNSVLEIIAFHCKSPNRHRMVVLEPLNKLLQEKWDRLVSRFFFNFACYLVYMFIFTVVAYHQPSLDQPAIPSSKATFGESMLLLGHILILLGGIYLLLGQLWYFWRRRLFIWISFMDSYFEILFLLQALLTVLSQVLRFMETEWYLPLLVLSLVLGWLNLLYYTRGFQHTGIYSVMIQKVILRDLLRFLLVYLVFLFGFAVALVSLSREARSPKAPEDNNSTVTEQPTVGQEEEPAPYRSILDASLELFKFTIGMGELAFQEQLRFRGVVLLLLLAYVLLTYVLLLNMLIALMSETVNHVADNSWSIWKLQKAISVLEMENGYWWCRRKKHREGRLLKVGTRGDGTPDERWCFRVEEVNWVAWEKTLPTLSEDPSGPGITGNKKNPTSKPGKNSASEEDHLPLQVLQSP
Kind of assay: Calcium imaging of TRP transfected cell lines treated with acetaldehyde (TRPV2). The format is cell-based. The conditions noted are these: 1 mM acetaldehyde.
Excerpt: as §1, §2, §3

The target of another assay is T4, TRPV4 (Mus musculus, UniProt Q9EPK8).
T4 construct: expressed in transfected cells; host or cells: HEK293T (ATCC CRL-11268), pcDNA3.1
T4 sequence (Q9EPK8 whole entry): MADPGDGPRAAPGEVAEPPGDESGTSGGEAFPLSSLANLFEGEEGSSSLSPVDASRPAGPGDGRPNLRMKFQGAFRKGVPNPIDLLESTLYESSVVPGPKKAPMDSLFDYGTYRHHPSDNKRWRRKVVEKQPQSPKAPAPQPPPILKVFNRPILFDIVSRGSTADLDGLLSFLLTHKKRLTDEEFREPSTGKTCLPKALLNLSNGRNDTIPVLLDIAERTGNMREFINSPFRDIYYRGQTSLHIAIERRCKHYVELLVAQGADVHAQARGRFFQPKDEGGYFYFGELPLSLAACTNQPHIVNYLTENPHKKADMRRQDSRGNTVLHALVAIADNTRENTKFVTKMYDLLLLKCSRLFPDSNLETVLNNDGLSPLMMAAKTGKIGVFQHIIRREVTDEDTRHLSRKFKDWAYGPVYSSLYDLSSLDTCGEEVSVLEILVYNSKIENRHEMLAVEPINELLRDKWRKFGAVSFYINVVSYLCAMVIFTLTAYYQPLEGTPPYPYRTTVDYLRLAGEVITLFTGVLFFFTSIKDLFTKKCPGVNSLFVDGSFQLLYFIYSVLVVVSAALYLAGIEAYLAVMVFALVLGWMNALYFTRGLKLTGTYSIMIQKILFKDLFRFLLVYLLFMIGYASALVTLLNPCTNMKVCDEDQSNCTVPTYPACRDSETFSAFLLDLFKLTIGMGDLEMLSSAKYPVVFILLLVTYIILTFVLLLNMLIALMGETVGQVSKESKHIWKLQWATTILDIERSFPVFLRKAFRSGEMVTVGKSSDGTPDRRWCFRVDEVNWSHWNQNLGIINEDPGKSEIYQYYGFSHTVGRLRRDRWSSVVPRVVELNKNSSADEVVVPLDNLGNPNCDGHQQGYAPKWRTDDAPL
Kind of assay: Calcium imaging of TRP transfected cell lines treated with acetaldehyde (TRPV4). It counts as cell-based. The conditions noted are these: 1 mM acetaldehyde.
Excerpt: as §1, §2, §3

T2 sequence (Q8R4D5 whole entry): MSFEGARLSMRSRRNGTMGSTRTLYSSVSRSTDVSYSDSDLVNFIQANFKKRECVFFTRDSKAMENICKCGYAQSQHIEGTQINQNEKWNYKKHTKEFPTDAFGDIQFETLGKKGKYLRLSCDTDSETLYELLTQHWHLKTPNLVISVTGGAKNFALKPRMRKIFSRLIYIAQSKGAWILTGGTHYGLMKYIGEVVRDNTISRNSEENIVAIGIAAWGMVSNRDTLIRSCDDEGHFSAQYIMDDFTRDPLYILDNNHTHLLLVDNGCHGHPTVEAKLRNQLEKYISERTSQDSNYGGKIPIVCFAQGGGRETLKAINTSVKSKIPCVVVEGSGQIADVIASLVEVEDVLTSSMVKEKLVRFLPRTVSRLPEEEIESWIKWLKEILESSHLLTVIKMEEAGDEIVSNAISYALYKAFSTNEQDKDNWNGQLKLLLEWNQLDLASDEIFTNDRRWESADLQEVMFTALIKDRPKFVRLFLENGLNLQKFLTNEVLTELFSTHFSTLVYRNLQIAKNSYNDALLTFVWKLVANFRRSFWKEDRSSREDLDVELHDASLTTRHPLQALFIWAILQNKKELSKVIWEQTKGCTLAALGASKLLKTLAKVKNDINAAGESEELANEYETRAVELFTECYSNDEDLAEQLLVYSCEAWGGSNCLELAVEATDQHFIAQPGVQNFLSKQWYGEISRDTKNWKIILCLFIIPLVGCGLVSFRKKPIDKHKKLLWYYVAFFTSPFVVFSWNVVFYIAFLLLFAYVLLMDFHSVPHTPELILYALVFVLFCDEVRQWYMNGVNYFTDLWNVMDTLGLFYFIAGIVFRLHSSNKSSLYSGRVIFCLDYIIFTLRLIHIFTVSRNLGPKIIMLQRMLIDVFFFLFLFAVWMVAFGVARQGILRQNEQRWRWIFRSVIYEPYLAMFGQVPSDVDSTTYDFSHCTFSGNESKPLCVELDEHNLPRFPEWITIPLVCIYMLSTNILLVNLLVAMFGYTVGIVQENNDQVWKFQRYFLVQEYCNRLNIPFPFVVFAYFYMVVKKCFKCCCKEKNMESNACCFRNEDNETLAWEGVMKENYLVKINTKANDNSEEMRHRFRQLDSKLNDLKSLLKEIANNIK
Description for ICR mice: This analysis was performed in accordance with protocols approved by the University Committee on Laboratory Animals. Mice were acclimated for 1 h to the test environment prior to experiments. Drugs dissolved in vehicle (PBS containing 0.5% Tween 80) were injected into mice right hindpaws intradermally.
Description for trigeminal neurons: The trigeminal neurons prepared thereby were then plated onto poly-L-lysine-coated coverslips in DMEM/F12 containing 10% FBS, 1% penicillin/streptomycin and 5 ng/Ml of 2.5S NGF (Invitrogen, USA), nerve growth factor (Invitrogen), followed by culture in a CO2 incubator for 48-72 hours.
Calcium imaging was performed with a confocal microscope (LSM5 Pascal, Carl Zeiss, Germany), and time-lapse images (488 nm excitation/514 nm emission) were collected every 3 seconds using Carl Zeiss ratio tool software (Carl Zeiss, Germany).

By EC50 is commonly meant the concentration at which the effect is half-maximal. Consider `CC=O` [acetaldehyde], for which, in the assay with ICR mice (1 mM, 10 mM, 100 mM acetaldehyde intradermal), the “dose dependence of acetaldehyde-induced nociceptive behaviors” value is “increased in a dose-dependent manner”. Besides, the “acute hindpaw licking/flicking behavior elicited” value in the assay on ICR mice (intradermal into hindpaw, 10 μl, 100 mM acetaldehyde or 10 mM cinnamaldehyde, n=5) is reported as “elicited acute licking or flicking behavior”. For the same compound, the “activation of TRPV3 by acetaldehyde” value at TRPV3 was “only TRPA1 was activated”. The “activation of TRPM8 by acetaldehyde” value on TRPM8 is “only TRPA1 was activated”. The “acetaldehyde response of capsaicin-cinnamaldehyde-positive neurons” value with trigeminal neurons (1 mM acetaldehyde, n=19) is given as “did response”. In addition, the “acetaldehyde response of menthol-positive neurons” value with trigeminal neurons (1 mM acetaldehyde, n=36, considered to express TRPM8) is given as “did not show response”. Moreover, the “acetaldehyde response of capsaicin-positive/cinnamaldehyde-negative neurons” value in the assay with trigeminal neurons (1 mM acetaldehyde, n=102, considered to express TRPV1) is recorded as “did not show response”. Also, the EC50 in the assay on trigeminal neurons (Mus musculus, Neuron, read-out: EC50 of acetaldehyde alone (Kd of dose-response curve) in trigeminal neurons) was found to be 740 µM. In addition, the “maximum efficacy heightened with PGE2 versus acetaldehyde alone” value in the assay with trigeminal neurons (acetaldehyde + 1 μM PGE2) was found to be 1.2 fold. The “activation of TRPA1 by acetaldehyde” value with TRPA1 is recorded as “only TRPA1 was activated”. Further, the “activation of TRPV2 by acetaldehyde” value on TRPV2 is listed as “only TRPA1 was activated”. The “activation of TRPV4 by acetaldehyde” value on TRPV4 was “only TRPA1 was activated”.
